This is an account of results in patent publication US4235886A, “Cyclic hexapeptide somatostatin analogs” (Merck & Co., Inc., priority 1979, dated 1980).

Non-standard residues stand in square brackets, D forms with d. Residues, ends and D or L forms follow the SMILES beside them. dTrp(5-F) = N[C@H](Cc1c[nH]c2ccc(F)cc12)C(=O)O; Orn = NCCC[C@H](N)C(=O)O; Abu = CC[C@H](N)C(=O)O

The subject of experiment [1] is Rat pituitaries (growth hormone release). Briefly: In vitro inhibition of growth hormone release from cultured rat pituitary cells. Format: cell-based. Particulars: multiples or fractions of the effect of somatostatin (= 1), fiducial limits in parentheses, 4 hours incubation, radioimmunoassay. As for the experimental part: The instant cyclic hexapeptide analogs of somatostatin are tested and compared with the effects of somatostatin in an in vitro test for the inhibition of growth hormone. The test is described as follows:
"Rat pituitaries were isolated according to the procedures of Vale and Grant "In vitro Pituitary Hormone Secretion Assay for Hypophysiotropic Substances" in Methods in Enzymology. Vol. XXXVII, eds. O'Malley, B. W. and Hardman, J. G. (Academic Press, Inc., New York) pp. 5-93 (1975).
After 4 days in culture, the cells were washed and incubated for 4 hours in Dulbecco-modified Eagle's medium in the presence or absence of graded doses of each analog or somatostatin. The medium was then collected for subsequent growth hormone determination by a double antibody radioimmunoassay for rat growth hormone."
The test results for some of the compounds of this invention are recorded below with the results for somatostatin listed first and given the arbitrary value of 1. The results for the instant compounds are given as multiples or fractions of the effect of somatostatin. The numbers in parentheses are the fiducial limits for the number preceding. The first of the instant compounds listed is the compound prepared in Example 1-5. The compound is written slightly different, however, to conform to the order of the amino acids found in somatostatin.

The test system of experiment [2] is pentagastrin evoked gastric secretion in the chronic fistula dog. The experiment is described as follows: Inhibition of pentagastrin evoked gastric secretion in the chronic fistula dog. Format: in vivo. Particulars: dose 0.8 μg/ml./min., infusion 0-60 min, pentagastrin 2.5 μg./kg./hour i.v., relative to placebo trial; for Gastric Secretion % Inhibition, Acid Concentration, 0-30 / Gastric Secretion % Inhibition, Vol., 0-30: 0-30 min; for Gastric Secretion % Inhibition, Acid Concentration, 30-60 / Gastric Secretion % Inhibition, Vol., 30-60: 30-60 min; for Gastric Secretion % Inhibition, Acid Concentration, 60-90 / Gastric Secretion % Inhibition, Vol., 60-90: 60-90 min; for Gastric Secretion % Inhibition, Acid Concentration, 90-120 / Gastric Secretion % Inhibition, Vol., 90-120: 90-120 min; for Gastric Secretion % Inhibition, Vol., 0-30 / Gastric Secretion % Inhibition, Vol., 30-60 / Gastric Secretion % Inhibition, Vol., 60-90 / Gastric Secretion % Inhibition, Vol., 90-120: volume. On the procedure:
The effects of the instant cyclichexapeptide analogs of somatostatin are determined by the following procedure.
Compounds were tested for their ability to inhibit pentagastrin evoked gastric secretion in the chronic fistula dog. Female beagle dogs with a chronic gastric fistula were given pentagastrin (2.5 μg./kg./hour, i.v. from -60 to 120 min.) and gastric outputs were collected via the fistula cannula. Samples were analyzed at 30 minute intervals for volume (ml.) and titratable acid (mEq/L) (Titration to pH 7 with 0.01 N NaOH); total acid output (mEq) was calculated as the production of output volume and acid concentration. Test compounds were infused at a constant rate from 0 to 60 minutes. Data have been expressed as percent change of total acid output relative to a placebo trial in the same animals.

On to `NCCCC[C@@H]1NC(=O)[C@@H](Cc2c[nH]c3ccccc23)NC(=O)[C@H](Cc2ccccc2)NC(=O)[C@@H]2CCCN2C(=O)[C@H](Cc2ccccc2)NC(=O)[C@H](CO)NC1=O` [Cyclo(Pro-Phe-D-Trp-Lys-ser-Phe)] (cyclo(FPF[dW]KS)), for which, in experiment [1], the “Growth Hormone Release Inhibition In Vitro” value is on record as 1.4 (1.1-1.7).
Turning to `C[C@@H](O)[C@@H]1NC(=O)[C@H](CCCCN)NC(=O)[C@@H](Cc2c[nH]c3ccccc23)NC(=O)[C@H](Cc2ccc(O)cc2)NC(=O)[C@@H]2CCCN2C(=O)[C@H](Cc2ccccc2)NC1=O` [Cyclo(Pro-Tyr-D-Trp-Lys-Thr-Phe)] (cyclo(FPY[dW]KT)), in experiment [2], the “Gastric Secretion % Inhibition, Acid Concentration, 0-30” value stood at 30%; the “Gastric Secretion % Inhibition, Acid Concentration, 30-60” value is reported as 49%; the “Gastric Secretion % Inhibition, Acid Concentration, 60-90” value amounted to 52%; the “Gastric Secretion % Inhibition, Acid Concentration, 90-120” value worked out at 27%. In experiment [2], the “Gastric Secretion % Inhibition, Vol., 0-30” value is 67%; the “Gastric Secretion % Inhibition, Vol., 30-60” value came to 87%; the “Gastric Secretion % Inhibition, Vol., 60-90” value was determined as 87%; the “Gastric Secretion % Inhibition, Vol., 90-120” value is recorded as 64%. In addition, the “Growth Hormone Release Inhibition In Vitro” value in experiment [1] is 14.3 (8.3-33.0).
Turning to `C[C@@H](O)[C@@H]1NC(=O)[C@H](CCCN)NC(=O)[C@@H](Cc2c[nH]c3ccccc23)NC(=O)[C@H](Cc2ccccc2)NC(=O)[C@@H]2CCCN2C(=O)[C@H](Cc2ccccc2)NC1=O` [Cyclo(Pro-Phe-D-Trp-Orn-Thr-Phe)] (cyclo(FPF[dW][Orn]T)), the “Growth Hormone Release Inhibition In Vitro” value in experiment [1] is recorded as 0.16(0.15-0.17).
The same measure, in the same setting: with `CC(C)C[C@@H]1NC(=O)[C@H]([C@@H](C)O)NC(=O)[C@H](CCCCN)NC(=O)[C@@H](Cc2c[nH]c3ccccc23)NC(=O)[C@H](Cc2ccccc2)NC(=O)[C@@H]2CCCN2C1=O` [Cyclo(Pro-Phe-D-Trp-Lys-Thr-Leu)] (cyclo(F[dW]KTLP)) the figure was 0.16 (0.07-0.33).
Turning to `C[C@@H]1NC(=O)[C@@H]2CCCN2C(=O)[C@H](Cc2ccccc2)NC(=O)[C@H]([C@@H](C)O)NC(=O)[C@H](CCCCN)NC(=O)[C@@H](Cc2c[nH]c3ccccc23)NC1=O` [Cyclo(Pro-Ala-d-Trp-Lys-Thr-Phe)] (cyclo(A[dW]KTFP)), the “Growth Hormone Release Inhibition In Vitro” value in experiment [1] was 0.19 (0.1-0.38).
Still for that read-out and setting: in the case of `C[C@@H](O)[C@@H]1NC(=O)[C@H](CCCCN)NC(=O)[C@@H](Cc2c[nH]c3ccc(F)cc23)NC(=O)[C@H](Cc2ccccc2)NC(=O)[C@@H]2CCCN2C(=O)[C@H](Cc2ccccc2)NC1=O` [Cyclo(Pro-Phe-D-5F-Trp-Lys-Thr-Phe)] (cyclo(FPF[dTrp(5-F)]KT)) it was 2.4 (2.1-2.8); in that of `CC(C)C[C@@H]1NC(=O)[C@@H]2CCCN2C(=O)[C@H](Cc2ccccc2)NC(=O)[C@H]([C@@H](C)O)NC(=O)[C@H](CCCCN)NC(=O)[C@@H](Cc2c[nH]c3ccccc23)NC1=O` [Cyclo(Pro-Leu-D-Trp-Lys-Thr-Phe)] (cyclo(FPL[dW]KT)), 0.29 (0.13-0.57).
Still for that read-out and setting: in the case of `CC[C@@H]1NC(=O)[C@H](CCCCN)NC(=O)[C@@H](Cc2c[nH]c3ccccc23)NC(=O)[C@H](Cc2ccccc2)NC(=O)[C@@H]2CCCN2C(=O)[C@H](Cc2ccccc2)NC1=O` [Cyclo(Pro-Phe-D-Trp-Lys-α-ABU-Phe)] (cyclo([Abu]FPF[dW]K)) it was 0.82 (0.57-1.18).
On the same count and under the same terms, in the case of `C[C@@H](O)[C@@H]1NC(=O)[C@H](CCCCN)NC(=O)[C@H](Cc2c[nH]c3ccccc23)NC(=O)[C@H](Cc2ccccc2)NC(=O)[C@@H]2CCCN2C(=O)[C@H](Cc2ccccc2)NC1=O` [Cyclo(Pro-Phe-L-Trp-Lys-Thr-Phe)] (cyclo(FPFWKT)) it was 1.59 (1.33-1.92).
With `C[C@@H](O)[C@@H]1NC(=O)[C@H](CCCCN)NC(=O)[C@@H](Cc2c[nH]c3ccccc23)NC(=O)[C@H](Cc2ccccc2)NC(=O)[C@@H]2CCCN2C(=O)[C@H](Cc2ccccc2)NC1=O` [Cyclo(Pro-Phe-D-Trp-Lys-Thr-Phe)] (cyclo(PF[dW]KTF)), in experiment [2], the “Gastric Secretion % Inhibition, Acid Concentration, 0-30” value is 18%; the “Gastric Secretion % Inhibition, Acid Concentration, 30-60” value came to 47%; the “Gastric Secretion % Inhibition, Acid Concentration, 60-90” value was determined as 54%; the “Gastric Secretion % Inhibition, Acid Concentration, 90-120” value is 68%. In experiment [2], the “Gastric Secretion % Inhibition, Vol., 0-30” value is on record as 88%; the “Gastric Secretion % Inhibition, Vol., 30-60” value was found to be 98%; the “Gastric Secretion % Inhibition, Vol., 60-90” value stood at 95%; the “Gastric Secretion % Inhibition, Vol., 90-120” value turned out to be 86%. Besides, in experiment [1], the “Growth Hormone Release Inhibition In Vitro” value is 1.71 (1.31-2.32).
